Source: ChEMBL document CHEMBL5620355, “Discovery of intracellular self-assembly protein degraders driven by tumor-specific activatable bioorthogonal reaction” (Eur J Med Chem, 2023)
Blank lines part the entries; values can stand above or below the compound they belong to. Activity calls are given as the source filed them. The rule behind the calls is not given here.

Key:
HEK293 [1] = test: Cytotoxicity against HEK293 cells incubated for 48 hrs by MTT assay; assay type: toxicity, cell-based; conditions: human, hek293, 48 h
U-87 MG [2] = test: Induction of apoptosis in human U87 cells assessed as viable cells at 10 uM incubated for 48 hrs in presence of 4-(4-(3-(4-chloro-3-(trifluoromethyl)phenyl)ureido)phenoxy)-N-(prop-2-yn-1-yl)picolinamide by Annexin V-FLTC/PI staining based flow cytometry (reference value: 86.74 %); assay type: functional, U-87MG ATCC; conditions: read-out: Activity
U-87 MG [3] = test: Antiproliferative activity against human U87 cells incubated for 48 hrs by MTT assay; assay type: functional, cell-based, U-87MG ATCC
[4] = Stability of compound in DMEM medium by HPLC analysis; assay type: physicochemical
A549 [5] = test: Antiproliferative activity against human A549 cells incubated for 48 hrs by MTT assay; assay type: functional, cell-based; conditions: A549, 48 h
U-87 MG [6] = test: Antiproliferative activity against human U87 cells incubated for 48 hrs in presence of 4-(4-(3-(4-chloro-3-(trifluoromethyl)phenyl)ureido)phenoxy)-N-(prop-2-yn-1-yl)picolinamide by MTT assay; assay type: functional, cell-based, U-87MG ATCC
U-87 MG [7] = test: Induction of apoptosis in human U87 cells assessed as necrotic cells at 20 uM incubated for 48 hrs in presence of 4-(4-(3-(4-chloro-3-(trifluoromethyl)phenyl)ureido)phenoxy)-N-(prop-2-yn-1-yl)picolinamide by Annexin V-FLTC/PI staining based flow cytometry (reference value: 0.60 %); assay type: functional, U-87MG ATCC
[8] = target: Vascular endothelial growth factor receptor 2 (Homo sapiens) (UniProt P35968); test: Induction of VEGFR2 degradation in human U87 cells at 10 uM incubated for 48 hrs by Western blot analysis; assay type: cell-based
U-87 MG [9] = test: Induction of apoptosis in human U87 cells assessed as late apoptotic cells at 10 uM incubated for 48 hrs in presence of 4-(4-(3-(4-chloro-3-(trifluoromethyl)phenyl)ureido)phenoxy)-N-(prop-2-yn-1-yl)picolinamide by Annexin V-FLTC/PI staining based flow cytometry (reference value: 3.71 %); assay type: functional, U-87MG ATCC
U-87 MG [10] = test: Induction of apoptosis in human U87 cells assessed as necrotic cells at 0.1 uM incubated for 48 hrs in presence of 4-(4-(3-(4-chloro-3-(trifluoromethyl)phenyl)ureido)phenoxy)-N-(prop-2-yn-1-yl)picolinamide by Annexin V-FLTC/PI staining based flow cytometry (reference value: 0.60 %); assay type: functional, U-87MG ATCC
[11] = target: Vascular endothelial growth factor receptor 2 (Homo sapiens) (UniProt P35968); test: Induction of VEGFR2 degradation in human U87 cells at 10 uM incubated for 48 hrs in presence of 4-azido-N-(2-(2,6-dioxopiperidin-3-yl)-1,3-dioxoisoindolin-4-yl)butanamide by Western blot analysis; assay type: cell-based
U-87 MG [12] = test: (§1) Induction of apoptosis in human U87 cells assessed as late apoptotic cells at 0.1 uM incubated for 48 hrs in presence of (2S,4R)-1-((S)-2-(5-azidopentanamido)-3,3-dimethylbutanoyl)-4-hydroxy-N-(4-(4-methylthiazol-5-yl)benzyl)pyrrolidine-2-carboxamide by Annexin V-FLTC/PI staining based flow cytometry (reference value: 3.71 %); assay type: functional, U-87MG ATCC
U-87 MG [13] = test: (§2) Induction of apoptosis in human U87 cells assessed as viable cells at 5 uM incubated for 48 hrs in presence of (2S,4R)-1-((S)-2-(5-azidopentanamido)-3,3-dimethylbutanoyl)-4-hydroxy-N-(4-(4-methylthiazol-5-yl)benzyl)pyrrolidine-2-carboxamide by Annexin V-FLTC/PI staining based flow cytometry (reference value: 86.74 %); assay type: functional, U-87MG ATCC; conditions: read-out: Activity
U-87 MG [14] = test: as §1, with “5” for “0.1”; assay type: functional, U-87MG ATCC
HEK293 [15] = test: Cytotoxicity against HEK293 cells at high concentration incubated for 48 hrs in presence of (2S,4R)-1-((S)-2-(5-azidopentanamido)-3,3-dimethylbutanoyl)-4-hydroxy-N-(4-(4-methylthiazol-5-yl)benzyl)pyrrolidine-2-carboxamide by MTT assay; assay type: toxicity, cell-based; conditions: human, hek293, 48 h
A549 [16] = test: Antiproliferative activity against human A549 cells incubated for 48 hrs in presence of 4-azido-N-(2-(2,6-dioxopiperidin-3-yl)-1,3-dioxoisoindolin-4-yl)butanamide by MTT assay; assay type: functional, cell-based; conditions: A549, 48 h
U-87 MG [17] = test: as §2, with “at 20” for “at 5”; assay type: functional, U-87MG ATCC; conditions: read-out: Activity
HEK293 [18] = test: Cytotoxicity against HEK293 cells at low concentration incubated for 48 hrs in presence of (2S,4R)-1-((S)-2-(5-azidopentanamido)-3,3-dimethylbutanoyl)-4-hydroxy-N-(4-(4-methylthiazol-5-yl)benzyl)pyrrolidine-2-carboxamide by MTT assay; assay type: toxicity, cell-based; conditions: human, hek293, 48 h
[19] = target: Serine/threonine-protein kinase B-raf (Homo sapiens) (UniProt P15056); test: Induction of BRAF degradation in human U87 cells at 10 uM incubated for 48 hrs in presence of 4-azido-N-(2-(2,6-dioxopiperidin-3-yl)-1,3-dioxoisoindolin-4-yl)butanamide by Western blot analysis; assay type: cell-based
[20] = target: T1, Ephrin type-B receptor 4 (Homo sapiens) (UniProt P54760); test: Induction of EphB4 degradation in human U87 cells upto 10 uM incubated for 48 hrs by Western blot analysis; assay type: cell-based
T1 sequence (whole entry): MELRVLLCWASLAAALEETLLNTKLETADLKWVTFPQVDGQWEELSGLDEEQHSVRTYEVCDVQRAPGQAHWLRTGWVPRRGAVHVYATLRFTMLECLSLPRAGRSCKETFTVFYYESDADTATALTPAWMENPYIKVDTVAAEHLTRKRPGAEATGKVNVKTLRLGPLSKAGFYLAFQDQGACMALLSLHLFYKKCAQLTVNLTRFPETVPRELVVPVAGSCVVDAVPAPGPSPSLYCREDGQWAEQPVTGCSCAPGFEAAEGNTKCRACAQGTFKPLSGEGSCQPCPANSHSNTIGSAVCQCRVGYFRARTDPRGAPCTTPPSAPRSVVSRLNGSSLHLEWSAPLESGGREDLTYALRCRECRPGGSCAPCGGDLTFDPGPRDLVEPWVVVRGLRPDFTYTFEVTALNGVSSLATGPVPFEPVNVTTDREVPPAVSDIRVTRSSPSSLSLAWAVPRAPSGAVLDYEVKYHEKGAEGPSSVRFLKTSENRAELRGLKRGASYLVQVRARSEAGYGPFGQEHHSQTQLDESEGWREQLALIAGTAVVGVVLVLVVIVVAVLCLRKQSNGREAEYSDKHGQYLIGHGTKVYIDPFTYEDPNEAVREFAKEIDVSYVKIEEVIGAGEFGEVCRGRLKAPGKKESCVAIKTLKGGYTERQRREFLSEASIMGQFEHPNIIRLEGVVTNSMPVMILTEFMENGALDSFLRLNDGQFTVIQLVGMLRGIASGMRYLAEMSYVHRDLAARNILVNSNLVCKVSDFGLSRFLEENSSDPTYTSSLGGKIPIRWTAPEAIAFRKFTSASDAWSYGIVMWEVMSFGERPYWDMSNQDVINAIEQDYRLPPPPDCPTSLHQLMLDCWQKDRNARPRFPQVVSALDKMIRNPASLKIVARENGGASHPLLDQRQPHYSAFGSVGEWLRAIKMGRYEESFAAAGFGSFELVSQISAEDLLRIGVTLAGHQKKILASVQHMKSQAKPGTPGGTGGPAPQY

[21] = target: Serine/threonine-protein kinase B-raf (Homo sapiens) (UniProt P15056); test: Induction of BRAF degradation in human U87 cells upto 10 uM incubated for 48 hrs by Western blot analysis; assay type: cell-based

Sequence of Serine/threonine-protein kinase B-raf (Homo sapiens) (P15056 whole entry): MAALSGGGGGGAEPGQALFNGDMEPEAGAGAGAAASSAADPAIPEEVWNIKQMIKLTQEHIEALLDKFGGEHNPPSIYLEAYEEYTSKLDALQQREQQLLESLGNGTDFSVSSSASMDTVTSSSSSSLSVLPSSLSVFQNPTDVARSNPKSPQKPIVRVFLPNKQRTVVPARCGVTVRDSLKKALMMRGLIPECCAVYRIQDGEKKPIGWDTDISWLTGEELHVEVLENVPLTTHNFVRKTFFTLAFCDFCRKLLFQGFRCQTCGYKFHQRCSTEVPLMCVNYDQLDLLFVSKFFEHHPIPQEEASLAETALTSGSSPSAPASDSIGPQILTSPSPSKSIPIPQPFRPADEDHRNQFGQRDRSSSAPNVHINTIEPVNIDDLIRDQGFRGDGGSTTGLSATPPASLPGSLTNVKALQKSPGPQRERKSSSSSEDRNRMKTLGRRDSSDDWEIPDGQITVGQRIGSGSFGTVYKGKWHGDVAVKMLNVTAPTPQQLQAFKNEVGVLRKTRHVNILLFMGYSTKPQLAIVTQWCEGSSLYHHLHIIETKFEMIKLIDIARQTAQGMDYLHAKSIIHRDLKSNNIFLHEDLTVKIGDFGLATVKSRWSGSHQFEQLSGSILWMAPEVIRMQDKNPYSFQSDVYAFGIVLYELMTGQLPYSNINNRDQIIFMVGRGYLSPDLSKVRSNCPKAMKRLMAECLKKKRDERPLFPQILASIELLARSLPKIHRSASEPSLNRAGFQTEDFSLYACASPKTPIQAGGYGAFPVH
Sequence of Vascular endothelial growth factor receptor 2 (Homo sapiens) (P35968 whole entry): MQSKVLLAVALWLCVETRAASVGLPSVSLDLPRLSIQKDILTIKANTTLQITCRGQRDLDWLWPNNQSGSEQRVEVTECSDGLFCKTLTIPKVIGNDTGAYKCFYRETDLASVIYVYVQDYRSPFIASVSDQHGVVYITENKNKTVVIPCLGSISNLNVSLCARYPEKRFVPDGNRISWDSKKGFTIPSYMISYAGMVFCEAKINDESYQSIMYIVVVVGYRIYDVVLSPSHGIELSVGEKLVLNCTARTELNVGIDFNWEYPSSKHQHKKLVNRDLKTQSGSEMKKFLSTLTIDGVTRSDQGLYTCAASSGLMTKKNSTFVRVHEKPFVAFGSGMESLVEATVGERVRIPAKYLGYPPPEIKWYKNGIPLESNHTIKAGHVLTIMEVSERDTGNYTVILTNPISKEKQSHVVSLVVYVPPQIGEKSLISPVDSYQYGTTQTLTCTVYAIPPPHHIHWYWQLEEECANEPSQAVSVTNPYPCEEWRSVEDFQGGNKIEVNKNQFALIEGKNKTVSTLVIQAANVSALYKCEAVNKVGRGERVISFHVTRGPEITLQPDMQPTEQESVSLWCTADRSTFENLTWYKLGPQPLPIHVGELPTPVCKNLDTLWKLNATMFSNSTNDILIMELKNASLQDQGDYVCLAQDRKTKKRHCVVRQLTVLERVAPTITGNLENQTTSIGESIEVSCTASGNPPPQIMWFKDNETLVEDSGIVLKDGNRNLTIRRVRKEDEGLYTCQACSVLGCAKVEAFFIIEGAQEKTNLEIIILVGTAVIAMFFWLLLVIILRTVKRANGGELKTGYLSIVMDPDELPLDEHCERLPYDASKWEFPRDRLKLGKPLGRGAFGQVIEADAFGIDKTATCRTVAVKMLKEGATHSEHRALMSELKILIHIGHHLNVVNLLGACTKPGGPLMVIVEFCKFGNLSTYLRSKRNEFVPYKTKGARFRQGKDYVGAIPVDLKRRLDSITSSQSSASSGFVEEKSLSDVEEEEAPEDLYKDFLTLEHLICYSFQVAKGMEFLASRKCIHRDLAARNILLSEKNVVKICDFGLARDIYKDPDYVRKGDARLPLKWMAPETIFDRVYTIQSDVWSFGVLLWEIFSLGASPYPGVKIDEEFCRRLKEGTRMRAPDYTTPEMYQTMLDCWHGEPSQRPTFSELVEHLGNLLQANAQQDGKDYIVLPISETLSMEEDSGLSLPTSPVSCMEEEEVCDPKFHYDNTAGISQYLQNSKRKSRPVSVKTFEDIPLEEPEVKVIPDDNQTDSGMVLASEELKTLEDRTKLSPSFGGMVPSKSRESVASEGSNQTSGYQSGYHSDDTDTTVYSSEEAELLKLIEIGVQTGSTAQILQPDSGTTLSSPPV

IC50 (U-87 MG [3]): > 50 µM | Stability [4]: Unstable | IC50 (A549 [5]): > 50 µM | IC50 (U-87 MG [6]): 5.68 µM | Activity [8]: Active
Structure (SMILES): [N-]=[N+]=NCCCC(=O)Nc1cccc2c1C(=O)N(C1CCC(=O)NC1=O)C2=O (centres undefined)
Activity (HEK293 [1]): Non-Toxic | viability at 10 µM (U-87 MG [2]): 1.74% | Activity (U-87 MG [7]): 6.36% | Activity (U-87 MG [9]): 72.58% | Activity (U-87 MG [10]): 1.02%

Activity [11]: Active | IC50 (A549 [16]): 1.16 µM | IC50 (U-87 MG [3]): 6.67 µM | Activity [19]: Active | IC50 (A549 [5]): 2.81 µM | Activity [20]: inactive | Activity [21]: inactive
Structure (SMILES): C#CCNC(=O)c1cc(Oc2ccc(NC(=O)Nc3ccc(Cl)c(C(F)(F)F)c3)cc2)ccn1
Activity (HEK293 [1]): Non-Toxic | Activity (U-87 MG [12]): 3.35% | viability at 5 µM (U-87 MG [13]): 1.48% | Activity (U-87 MG [14]): 73.25% | Activity (HEK293 [15]): Toxic | viability at 20 µM (U-87 MG [17]): 9.88% | Activity (HEK293 [18]): Non-Toxic
